Test results as given in ChEMBL document CHEMBL1156230, “Identification of phenylsulfone-substituted quinoxaline (WYE-672) as a tissue selective liver X-receptor (LXR) agonist” (J Med Chem, 2010).
Activity calls are given as the source filed them. No cut-off for these calls is given here.

How the values were obtained:
Mus musculus [1] = assay: Antiatherosclerotic activity against high fat/high cholesterol fed LDLR-deficient mouse assessed as Lipc gene regulation at 10 mg/kg administered with diet for 7 days by Experion chip analysis; assay type: functional, organism-based; design: dose 10 mg/kg
Mus musculus [2] = assay: Antiatherosclerotic activity against high fat/high cholesterol fed LDLR-deficient mouse assessed as cyp7a1 gene regulation at 10 mg/kg administered with diet for 7 days by Experion chip analysis; assay type: functional, organism-based; design: dose 10 mg/kg
Mus musculus [3] = assay: Antiatherosclerotic activity against high fat/high cholesterol fed LDLR-deficient mouse assessed as apoc1 gene regulation at 10 mg/kg administered with diet for 7 days by Experion chip analysis; assay type: functional, organism-based; design: dose 10 mg/kg
Mus musculus [4] = assay: Antiatherosclerotic activity against high fat/high cholesterol fed LDLR-deficient mouse assessed as apo5 gene regulation at 10 mg/kg administered with diet for 7 days by Experion chip analysis; assay type: functional, organism-based; design: dose 10 mg/kg
Mus musculus [5] = assay: Antiatherosclerotic activity against high fat/high cholesterol fed LDLR-deficient mouse assessed as IPl gene regulation at 10 mg/kg administered with diet for 7 days by Experion chip analysis; assay type: functional, organism-based; design: dose 10 mg/kg
Mus musculus [6] = assay: Antiatherosclerotic activity against high fat/high cholesterol fed LDLR-deficient mouse assessed as lipg gene regulation at 10 mg/kg administered with diet for 7 days by Experion chip analysis; assay type: functional, organism-based; design: dose 10 mg/kg
Mus musculus [7] = assay: Antiatherosclerotic activity against high fat/high cholesterol fed LDLR-deficient mouse macrophages assessed as induction of ABCA1 expression at 3 mg/kg administered with diet for 8 weeks; assay type: functional, organism-based; design: dose 3 mg/kg
Mus musculus [8] = assay: Antiatherosclerotic activity against high fat/high cholesterol fed LDLR-deficient mouse assessed as abcg8 gene regulation at 0.6 mg/kg administered with diet for 7 days by Experion chip analysis; assay type: functional, organism-based; design: dose 0.6 mg/kg
Mus musculus [9] = assay: Antiatherosclerotic activity against high fat/high cholesterol fed LDLR-deficient mouse assessed as abcg8 gene regulation at 10 mg/kg administered with diet for 7 days by Experion chip analysis; assay type: functional, organism-based; design: dose 10 mg/kg
Mus musculus [10] = assay: Antiatherosclerotic activity against high fat/high cholesterol fed LDLR-deficient mouse duodenum assessed as induction of ABCA1 expression at 10 mg/kg administered with diet for 8 weeks; assay type: functional, organism-based; design: dose 10 mg/kg
Mus musculus [11] = assay: Antiatherosclerotic activity against high fat/high cholesterol fed LDLR-deficient mouse assessed as abcg5 gene regulation at 0.6 mg/kg administered with diet for 7 days by Experion chip analysis; assay type: functional, organism-based; design: dose 0.6 mg/kg
Mus musculus [12] = species on record: Mus musculus; assay: Antiatherosclerotic activity against high fat/high cholesterol fed LDLR-deficient mouse assessed as reduction in plasma triglyceride level; assay type: functional, organism-based
Mus musculus [13] = assay: Antiatherosclerotic activity against high fat/high cholesterol fed LDLR-deficient mouse assessed as lipg gene regulation at 3 mg/kg administered with diet for 7 days by Experion chip analysis; assay type: functional, organism-based; design: dose 3 mg/kg
Mus musculus [14] = assay: Antiatherosclerotic activity against high fat/high cholesterol fed LDLR-deficient mouse assessed as abca1 gene regulation at 3 mg/kg administered with diet for 7 days by Experion chip analysis; assay type: functional, organism-based; design: dose 3 mg/kg
Mus musculus [15] = assay: Antiatherosclerotic activity against high fat/high cholesterol fed LDLR-deficient mouse macrophages assessed as induction of ABCA1 expression at 0.6 mg/kg administered with diet for 8 weeks; assay type: functional, organism-based; design: dose 0.6 mg/kg
Mus musculus [16] = assay: Antiatherosclerotic activity against high fat/high cholesterol fed LDLR-deficient mouse duodenum assessed as induction of ABCG8 expression at 0.6 mg/kg administered with diet for 8 weeks; assay type: functional, organism-based; design: dose 0.6 mg/kg
Mus musculus [17] = assay: Antiatherosclerotic activity against high fat/high cholesterol fed LDLR-deficient mouse assessed as adfp gene regulation at 3 mg/kg administered with diet for 7 days by Experion chip analysis; assay type: functional, organism-based; design: dose 3 mg/kg
Mus musculus [18] = species on record: Mus musculus; assay: Antiatherosclerotic activity against high fat/high cholesterol fed LDLR-deficient mouse assessed as reduction in total plasma cholesterol; assay type: functional, organism-based
Mus musculus [19] = assay: Antiatherosclerotic activity against high fat/high cholesterol fed LDLR-deficient mouse assessed as pltp gene regulation at 0.6 mg/kg administered with diet for 7 days by Experion chip analysis; assay type: functional, organism-based; design: dose 0.6 mg/kg
Mus musculus [20] = assay: Antiatherosclerotic activity against high fat/high cholesterol fed LDLR-deficient mouse assessed as abcg5 gene regulation at 3 mg/kg administered with diet for 8 weeks by Experion chip analysis
Mus musculus [21] = assay: Antiatherosclerotic activity against high fat/high cholesterol fed LDLR-deficient mouse duodenum assessed as induction of ABCG5 expression at 0.6 mg/kg administered with diet for 8 weeks; assay type: functional, organism-based; design: dose 0.6 mg/kg
Mus musculus [22] = assay: Antiatherosclerotic activity against high fat/high cholesterol fed LDLR-deficient mouse assessed as scab1 gene regulation at 3 mg/kg administered with diet for 7 days by Experion chip analysis; assay type: functional, organism-based; design: dose 3 mg/kg
Mus musculus [23] = assay: Antiatherosclerotic activity against high fat/high cholesterol fed LDLR-deficient mouse assessed as ldlr gene regulation at 10 mg/kg administered with diet for 7 days by Experion chip analysis; assay type: functional, organism-based; design: dose 10 mg/kg
Mus musculus [24] = assay: Antiatherosclerotic activity against high fat/high cholesterol fed LDLR-deficient mouse assessed as adfp gene regulation at 0.6 mg/kg administered with diet for 7 days by Experion chip analysis; assay type: functional, organism-based; design: dose 0.6 mg/kg
Mus musculus [25] = assay: Antiatherosclerotic activity against high fat/high cholesterol fed LDLR-deficient mouse assessed as scd1 gene regulation at 0.6 mg/kg administered with diet for 7 days by Experion chip analysis; assay type: functional, organism-based; design: dose 0.6 mg/kg
Mus musculus [26] = assay: Antiatherosclerotic activity against high fat/high cholesterol fed LDLR-deficient mouse assessed as scd1 gene regulation at 10 mg/kg administered with diet for 7 days by Experion chip analysis; assay type: functional, organism-based; design: dose 10 mg/kg
Mus musculus [27] = assay: Antiatherosclerotic activity against high fat/high cholesterol fed LDLR-deficient mouse assessed as apoc1 gene regulation at 3 mg/kg administered with diet for 7 days by Experion chip analysis; assay type: functional, organism-based; design: dose 3 mg/kg
Mus musculus [28] = assay: Antiatherosclerotic activity against high fat/high cholesterol fed LDLR-deficient mouse assessed as apo5 gene regulation at 3 mg/kg administered with diet for 7 days by Experion chip analysis; assay type: functional, organism-based; design: dose 3 mg/kg
Mus musculus [29] = assay: Antiatherosclerotic activity against high fat/high cholesterol fed LDLR-deficient mouse assessed as scab1 gene regulation at 10 mg/kg administered with diet for 7 days by Experion chip analysis; assay type: functional, organism-based; design: dose 10 mg/kg
Mus musculus [30] = assay: Antiatherosclerotic activity against high fat/high cholesterol fed LDLR-deficient mouse assessed as pltp gene regulation at 10 mg/kg administered with diet for 7 days by Experion chip analysis; assay type: functional, organism-based; design: dose 10 mg/kg
Mus musculus [31] = assay: Antiatherosclerotic activity against high fat/high cholesterol fed LDLR-deficient mouse assessed as Fasn gene regulation at 10 mg/kg administered with diet for 7 days by Experion chip analysis; assay type: functional, organism-based; design: dose 10 mg/kg
Mus musculus [32] = assay: Antiatherosclerotic activity against high fat/high cholesterol fed LDLR-deficient mouse duodenum assessed as induction of SREBP-1c expression at 3 mg/kg administered with diet for 8 weeks; assay type: functional, organism-based; design: dose 3 mg/kg
Mus musculus [33] = assay: Antiatherosclerotic activity against high fat/high cholesterol fed LDLR-deficient mouse duodenum assessed as induction of ABCG5 expression at 10 mg/kg administered with diet for 8 weeks; assay type: functional, organism-based; design: dose 10 mg/kg
Mus musculus [34] = assay: Antiatherosclerotic activity against high fat/high cholesterol fed LDLR-deficient mouse assessed as Irp1 gene regulation at 0.6 mg/kg administered with diet for 7 days by Experion chip analysis; assay type: functional, organism-based; design: dose 0.6 mg/kg
Mus musculus [35] = assay: Antiatherosclerotic activity against high fat/high cholesterol fed LDLR-deficient mouse assessed as abcg1 gene regulation at 10 mg/kg administered with diet for 7 days by Experion chip analysis; assay type: functional, organism-based; design: dose 10 mg/kg
Mus musculus [36] = assay: Antiatherosclerotic activity against high fat/high cholesterol fed LDLR-deficient mouse macrophages assessed as induction of ABCG1 expression at 3 mg/kg administered with diet for 8 weeks; assay type: functional, organism-based; design: dose 3 mg/kg
Mus musculus [37] = assay: Antiatherosclerotic activity against high fat/high cholesterol fed LDLR-deficient mouse assessed as apoc1 gene regulation at 0.6 mg/kg administered with diet for 7 days by Experion chip analysis; assay type: functional, organism-based; design: dose 0.6 mg/kg
Mus musculus [38] = assay: Antiatherosclerotic activity against high fat/high cholesterol fed LDLR-deficient mouse assessed as scd1 gene regulation at 3 mg/kg administered with diet for 7 days by Experion chip analysis; assay type: functional, organism-based; design: dose 3 mg/kg
Mus musculus [39] = assay: Antiatherosclerotic activity against high fat/high cholesterol fed LDLR-deficient mouse assessed as abca1 gene regulation at 10 mg/kg administered with diet for 7 days by Experion chip analysis; assay type: functional, organism-based; design: dose 10 mg/kg

SMILES	Activity (Mus musculus [1])	Activity (Mus musculus [2])	Activity (Mus musculus [3])	Activity (Mus musculus [4])	Activity (Mus musculus [5])	Activity (Mus musculus [6])	Activity (Mus musculus [7])	Activity (Mus musculus [8])	Activity (Mus musculus [9])	Activity (Mus musculus [10])	Activity (Mus musculus [11])	Activity (Mus musculus [12])	Activity (Mus musculus [13])	Activity (Mus musculus [14])	Activity (Mus musculus [15])	Activity (Mus musculus [16])	Activity (Mus musculus [17])	Activity (Mus musculus [18])	Activity (Mus musculus [19])	Activity (Mus musculus [20])	further results
O=C(O)Cc1cccc(OCCCN(Cc2cccc(C(F)(F)F)c2Cl)CC(c2ccccc2)c2ccccc2)c1	Active	Active	Active	Active	Active	Active	Active	Active	Active	Active	Active	inactive	Active	Active	Active	Active	Active	inactive	Active	Active	Activity (Mus musculus [21]): Active; Activity (Mus musculus [22]): Active; Activity (Mus musculus [23]): Active; Activity (Mus musculus [24]): Active; Activity (Mus musculus [25]): Active; Activity (Mus musculus [26]): Active; Activity (Mus musculus [27]): Active; Activity (Mus musculus [28]): Active; Activity (Mus musculus [29]): Active; Activity (Mus musculus [30]): Active; Activity (Mus musculus [31]): Active; Activity (Mus musculus [32]): Active; Activity (Mus musculus [33]): Active; Activity (Mus musculus [34]): Active; Activity (Mus musculus [35]): Active; Activity (Mus musculus [36]): Active; Activity (Mus musculus [37]): Active; Activity (Mus musculus [38]): Active; Activity (Mus musculus [39]): Active
Cc1nc2c(C(F)(F)F)cccc2nc1-c1ccc(-c2cccc(S(C)(=O)=O)c2)cc1	Active	Active	Active	Active	Active	Active	Active	Active	Active	Active	Active	inactive	Active	Active	Active	Active	Active	inactive	Active	Active	Activity (Mus musculus [21]): Active; Activity (Mus musculus [22]): Active; Activity (Mus musculus [23]): Active; Activity (Mus musculus [24]): Active; Activity (Mus musculus [25]): Active; Activity (Mus musculus [26]): Active; Activity (Mus musculus [27]): Active; Activity (Mus musculus [28]): Active; Activity (Mus musculus [29]): Active; Activity (Mus musculus [30]): Active; Activity (Mus musculus [31]): Active; Activity (Mus musculus [32]): Active; Activity (Mus musculus [33]): Active; Activity (Mus musculus [34]): Active; Activity (Mus musculus [35]): Active; Activity (Mus musculus [36]): Active; Activity (Mus musculus [37]): Active; Activity (Mus musculus [38]): Active; Activity (Mus musculus [39]): Active
